We go through 17 molecules from patent US20230212549A1, “COMPOUNDS COMPRISING A […] LIGAND AND USE THEREOF” (priority 2021, published 2023).

Numbered stars: 1 amine (or outer) side, 2 acyl side, 3 side chain; on linkers, the order of the positions; unused ones are H or OH. Bridge positions count the residues as written; N and C are the ends. Square brackets hold non-standard residues; d marks the D form. Peptide text beside a SMILES is read from it. * marks the point of attachment. NH(1-deoxy-D-glucityl) = OC[C@@H](O)[C@@H](O)[C@H](O)[C@@H](O)CN*; X3 = NCCNCC(CNCCN)C(=O)NCCCOCCOCCOCCCN*; mXylylene = c1cc(C[*:1])cc(C[*:2])c1; Suc = O=C(CCC(=O)[*:2])[*:1]; Nle = CCCC[C@H](N)C(=O)O A value given as a limit tells only on which side of the number the result lay.

Assay [1] concerns the target T1, FAP-expressing human WI-38 fibroblasts (Homo sapiens, UniProt Q12884).
T1 construct: FAP-expressing human WI-38 fibroblasts (ECACC) were cultured in EMEM; host or cells: WI-38 human fibroblasts
The assay can be described thus: Competitive FACS binding assay. How it is done: Cells were analyzed in an Attune NxT flow cytometer. […] […].
Cells were analyzed in an Attune NxT flow cytometer. […]
For orientation: In flow cytometry, cells or beads pass a laser one at a time.

In another assay the target is Human recombinant FAP (Homo sapiens, UniProt Q12884). The assay can be described thus: FRET-based FAP protease activity assay. The class given is biochemical. Also on record: purchased R&D systems 3715-SE.
Chain of Human recombinant FAP (Q12884 whole entry): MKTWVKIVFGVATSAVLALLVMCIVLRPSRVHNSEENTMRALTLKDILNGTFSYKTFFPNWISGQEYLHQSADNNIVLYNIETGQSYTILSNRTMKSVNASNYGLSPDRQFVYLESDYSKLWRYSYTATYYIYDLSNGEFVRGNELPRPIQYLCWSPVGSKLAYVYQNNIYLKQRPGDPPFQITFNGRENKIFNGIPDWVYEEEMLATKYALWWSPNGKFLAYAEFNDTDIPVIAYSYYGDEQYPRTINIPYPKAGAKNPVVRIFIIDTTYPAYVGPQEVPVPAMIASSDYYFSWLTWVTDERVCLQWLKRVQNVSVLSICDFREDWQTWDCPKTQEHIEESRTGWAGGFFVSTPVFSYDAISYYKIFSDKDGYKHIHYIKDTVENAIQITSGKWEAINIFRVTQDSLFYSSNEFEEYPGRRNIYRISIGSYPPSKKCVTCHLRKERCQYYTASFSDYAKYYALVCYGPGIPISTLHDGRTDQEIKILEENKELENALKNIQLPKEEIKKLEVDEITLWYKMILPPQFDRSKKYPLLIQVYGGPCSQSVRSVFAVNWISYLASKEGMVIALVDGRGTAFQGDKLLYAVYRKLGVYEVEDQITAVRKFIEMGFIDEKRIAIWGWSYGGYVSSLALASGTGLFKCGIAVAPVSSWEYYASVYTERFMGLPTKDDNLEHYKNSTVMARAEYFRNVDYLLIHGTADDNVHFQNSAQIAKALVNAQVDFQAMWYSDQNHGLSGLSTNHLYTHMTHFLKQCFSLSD
Where [2] appears, read: pIC50 Category (Activity), FRET-peptide substrate, 37° C.

T1 sequence (Q12884 whole entry): as above

Take `C=CCOC(=O)N[C@H]1CSCc2cc(CSCCNC(=O)CN3CCN(CC(=O)O)CCN(CC(=O)O)CCN(CC(=O)O)CC3)cc(c2)CSC[C@@H](C(=O)O)NC(=O)[C@H](Cc2ccccc2)NC(=O)[C@H](CCC(N)=O)NC(=O)[C@H]([C@@H](C)O)NC(=O)[C@@H]2CCCN2C(=O)[C@@H]2CCCN2C1=O` [3BP-3915, Alloc-[Cys(tMeBn(DOTA-AET))-Pro-Pro-Thr-Gln-Phe-Cys]-OH]: the IC50 (in assay [1]; on Human recombinant FAP (setting [2])) was 10 to 79.4 nM throughout.

On to `C=CCCOC(=O)N[C@H]1CSCc2cc(CSCCNC(=O)CN3CCN(CC(=O)O)CCN(CC(=O)O)CCN(CC(=O)O)CC3)cc(c2)CSC[C@@H](C(=O)O)NC(=O)[C@H](Cc2ccccc2)NC(=O)[C@H](CCC(N)=O)NC(=O)[C@H]([C@@H](C)O)NC(=O)[C@@H]2CCCN2C(=O)[C@@H]2CCCN2C1=O` [3BP-3916, Bulloc-[Cys(tMeBn(DOTA-AET))-Pro-Pro-Thr-Gln-Phe-Cys]-OH], for which the values for the IC50 (in assay [1]; at Human recombinant FAP (setting [2])) were less than 10 nM and 10 to 79.4 nM, respectively.

As for `C[C@@H](O)[C@@H]1NC(=O)[C@@H]2CCCN2C(=O)[C@@H]2CCCN2C(=O)[C@@H](NC(=O)NC2CCCC2)CSCc2cc(CSCCNC(=O)CN3CCN(CC(=O)O)CCN(CC(=O)O)CCN(CC(=O)O)CC3)cc(c2)CSC[C@@H](C(=O)O)NC(=O)[C@H](Cc2ccccc2)NC(=O)[C@H](CCC(N)=O)NC1=O` [3BP-3917, Cpentyl-CAyl-[Cys(tMeBn(DOTA-AET))-Pro-Pro-Thr-Gln-Phe-Cys]-OH], the half-maximal inhibitory concentration (IC50) (in assay [1]; on Human recombinant FAP (setting [2])) was 10 to 79.4 nM throughout.

On to `C[C@@H](O)[C@@H]1NC(=O)[C@@H]2CCCN2C(=O)[C@@H]2CCCN2C(=O)[C@@H](NC(=O)C2CCOC2)CSCc2cc(CSCCNC(=O)CN3CCN(CC(=O)O)CCN(CC(=O)O)CCN(CC(=O)O)CC3)cc(c2)CSC[C@@H](C(=O)O)NC(=O)[C@H](Cc2ccccc2)NC(=O)[C@H](CCC(N)=O)NC1=O` (stereo partly drawn) [3BP-3919, Fur-[Cys(tMeBn(DOTA-AET))-Pro-Pro-Thr-Gln-Phe-Cys]-OH], for which the IC50 (in assay [1]; on Human recombinant FAP (setting [2])) was 100 to 794 nM each time.

As for `C[C@@H](O)[C@@H]1NC(=O)[C@@H]2CCCN2C(=O)[C@@H]2CCCN2C(=O)[C@@H](NC(=O)[C@@H]2CCCO2)CSCc2cc(CSCCNC(=O)CN3CCN(CC(=O)O)CCN(CC(=O)O)CCN(CC(=O)O)CC3)cc(c2)CSC[C@@H](C(=O)O)NC(=O)[C@H](Cc2ccccc2)NC(=O)[C@H](CCC(N)=O)NC1=O` [3BP-3936, Sth-[Cys(tMeBn(DOTA-AET))-Pro-Pro-Thr-Gln-Phe-Cys]-OH], the half-inhibitory concentration (IC50) (in assay [1]; on Human recombinant FAP (setting [2])) was 10 to 79.4 nM in each case.

Regarding `COCCCC(=O)N[C@H]1CSCc2cc(CSCCNC(=O)CN3CCN(CC(=O)O)CCN(CC(=O)O)CCN(CC(=O)O)CC3)cc(c2)CSC[C@@H](C(=O)O)NC(=O)[C@H](Cc2ccccc2)NC(=O)[C@H](CCC(N)=O)NC(=O)[C@H]([C@@H](C)O)NC(=O)[C@@H]2CCCN2C(=O)[C@@H]2CCCN2C1=O` [3BP-3937, MeOBut-[Cys(tMeBn(DOTA-AET))-Pro-Pro-Thr-Gln-Phe-Cys]-OH], the figures for the IC50 (in assay [1]; on Human recombinant FAP (setting [2])) were less than 10 nM and 10 to 79.4 nM, respectively.

Turning to `CCCOCC(=O)N[C@H]1CSCc2cc(CSCCNC(=O)CN3CCN(CC(=O)O)CCN(CC(=O)O)CCN(CC(=O)O)CC3)cc(c2)CSC[C@@H](C(=O)O)NC(=O)[C@H](Cc2ccccc2)NC(=O)[C@H](CCC(N)=O)NC(=O)[C@H]([C@@H](C)O)NC(=O)[C@@H]2CCCN2C(=O)[C@@H]2CCCN2C1=O` [3BP-3938, PrOAc-[Cys(tMeBn(DOTA-AET))-Pro-Pro-Thr-Gln-Phe-Cys]-OH], the half-maximal inhibitory concentration (IC50) (in assay [1]; on Human recombinant FAP (setting [2])) was less than 10 nM in each case.

Regarding `CCCCCC(=O)N[C@H]1CSCc2cc(CSCCNC(=O)CCC(=O)NCCCOCCOCCOCCCNC(=O)CCC(=O)NCCCOCCOCCOCCCNC(=O)CCC(=O)NCCCOCCOCCOCCCNC(=O)CCC(=O)NCCCOCCOCCOCCCNC(=O)CCCC[C@@H]3SC[C@@H]4NC(=O)N[C@@H]43)cc(c2)CSC[C@@H](C(=O)O)NC(=O)[C@H](Cc2ccccc2)NC(=O)[C@H](CCC(N)=O)NC(=O)[C@H]([C@@H](C)O)NC(=O)[C@@H]2CCCN2C(=O)[C@@H]2CCCN2C1=O` [3BP-4170, Hex-[Cys-(tMeBn(Bio-Ttds-Ttds-Ttds-Ttds-AET))-Pro-Pro-Thr-Gln-Phe-Cys]-OH], the IC50 (in assay [1]; at Human recombinant FAP (setting [2])) was 10 to 79.4 nM in each case.

As to `CCCC[C@H](NC(=O)[C@H](CCC(=O)NC[C@H](O)[C@@H](O)[C@H](O)[C@H](O)CO)NC(=O)CCC(=O)NCCCOCCOCCOCCCNC(=O)C(CNCCN)CNCCN)C(=O)N[C@H]1CSCc2cccc(c2)CSC[C@@H](C(=O)O)NC(=O)[C@H](Cc2ccccc2)NC(=O)[C@H](CCC(=O)O)NC(=O)[C@H]([C@@H](C)O)NC(=O)[C@@H]2CCCN2C(=O)[C@@H]2CCCN2C1=O` [3BP-4231, N4Ac-Ttds-Glu(AGLU′)-Nle-[Cys-(3MeBn)-Pro-Pro-Thr-Glu-Phe-Cys]-OH] ({X3-Suc}-E(NH(1-deoxy-D-glucityl))[Nle]CPPTEFC-OH; linker 3-9 via mXylylene), the concentration for half-maximal inhibition (IC50) (in assay [1]; on Human recombinant FAP (setting [2])) was greater than 1000 nM throughout.

On to `CCCC[C@H](NC(=O)CCC(=O)NCCCOCCOCCOCCCNC(=O)CC[C@H](NC(=O)C(CNCCN)CNCCN)C(=O)O)C(=O)N[C@H]1CSCc2cccc(c2)CSC[C@@H](C(=O)O)NC(=O)[C@H](Cc2ccccc2)NC(=O)[C@H](CCC(N)=O)NC(=O)[C@H]([C@@H](C)O)NC(=O)[C@@H]2CCCN2C(=O)[C@@H]2CCCN2C1=O` [3BP-4245, N4Ac-gGlu-Ttds-Nle-[Cys-(3MeBn)-Pro-Pro-Thr-Gln-Phe-Cys]-OH], for which the 50% inhibitory concentration (IC50) (in assay [1]; at Human recombinant FAP (setting [2])) was 10 to 79.4 nM each time.

For the molecule `CCCC[C@H](NC(=O)[C@H](CCC(=O)NC[C@H](O)[C@@H](O)[C@H](O)[C@H](O)CO)NC(=O)CCC(=O)NCCCOCCOCCOCCCNC(=O)C(CNCCN)CNCCN)C(=O)N[C@H]1CSCc2cccc(c2)CSC[C@@H](C(=O)O)NC(=O)[C@H](Cc2ccccc2)NC(=O)[C@H](CCC(N)=O)NC(=O)[C@H]([C@@H](C)O)NC(=O)[C@@H]2CCCN2C(=O)[C@@H]2CCCN2C1=O` [3BP-4248, N4Ac-Ttds-Glu(AGLU′)-Nle-[Cys-(3MeBn)-Pro-Pro-Thr-Gln-Phe-Cys]-OH], the IC50 (in assay [1]; at Human recombinant FAP (setting [2])) was greater than 1000 nM each time.

Regarding `CCCC[C@H](NC(=O)CCC(=O)NCCCOCCOCCOCCCNC(=O)[C@H](CCC(=O)NC[C@H](O)[C@@H](O)[C@H](O)[C@H](O)CO)NC(=O)[C@H](CCC(=O)NC[C@H](O)[C@@H](O)[C@H](O)[C@H](O)CO)NC(=O)C(CNCCN)CNCCN)C(=O)N[C@H]1CSCc2cccc(c2)CSC[C@@H](C(=O)O)NC(=O)[C@H](Cc2ccccc2)NC(=O)[C@H](CCC(N)=O)NC(=O)[C@H]([C@@H](C)O)NC(=O)[C@@H]2CCCN2C(=O)[C@@H]2CCCN2C1=O` [3BP-4265, N4Ac-Glu(AGLU′)-Glu(AGLU′)-Ttds-Nle-[Cys-(3MeBn)-Pro-Pro-Thr-Gln-Phe-Cys]-OH], the IC50 – broadly, the midpoint of a concentration-inhibition curve – is 100 to 794 nM in assay [1] and 10 to 79.4 nM on Human recombinant FAP (setting [2]).

With `CCCCCC(=O)N[C@H]1CSCc2cc(CSCCNC(=O)CCC(=O)NCCCOCCOCCOCCCNC(=O)[C@H](CO)NC(=O)[C@H](CO)NC(=O)[C@H](CO)NC(=O)CS)cc(c2)CSC[C@@H](C(=O)O)NC(=O)[C@H](Cc2ccccc2)NC(=O)[C@H](CCC(N)=O)NC(=O)[C@H]([C@@H](C)O)NC(=O)[C@@H]2CCCN2C(=O)[C@@H]2CCCN2C1=O` [3BP-4308, Hex-[Cys-(tMeBn(H-SAc-Ser-Ser-Ser-Ttds-AET))-Pro-Pro-Thr-Gln-Phe-Cys]-OH], the IC50 (in assay [1]; at Human recombinant FAP (setting [2])) was 10 to 79.4 nM each time.

In the case of `CCCCCC(=O)N[C@H]1CSCc2cc(CSCCNC(=O)CCCC(=O)Nc3ccc(C[C@@H](CN(CCN(CC(=O)O)CC(=O)O)CC(=O)O)N(CC(=O)O)CC(=O)O)cc3)cc(c2)CSC[C@@H](C(=O)O)NC(=O)[C@H](Cc2ccccc2)NC(=O)[C@H](CCC(N)=O)NC(=O)[C@H]([C@@H](C)O)NC(=O)[C@@H]2CCCN2C(=O)[C@@H]2CCCN2C1=O` [3BP-4366, Hex-[Cys-(tMeBn(DTPABzl-Glutar-AET))-Pro-Pro-Thr-Gln-Phe-Cys]-OH], the IC50 (in assay [1]; on Human recombinant FAP (setting [2])) was 100 to 794 nM each time.

`CCCCCC(=O)N[C@H]1CSCc2cc(CSCCNC(=O)CCOCCOCCOCCOCCOCCOCCNC(=O)CCc3ccc(O)c(CN(CCN(CC(=O)O)Cc4cc(CCC(=O)O)ccc4O)CC(=O)O)c3)cc(c2)CSC[C@@H](C(=O)O)NC(=O)[C@H](Cc2ccccc2)NC(=O)[C@H](CCC(N)=O)NC(=O)[C@H]([C@@H](C)O)NC(=O)[C@@H]2CCCN2C(=O)[C@@H]2CCCN2C1=O` [3BP-4383, Hex-[Cys(tMeBn(HBED-PEG6-AET))-Pro-Pro-Thr-Gln-Phe-Cys]-OH]: the IC50 (in assay [1]; on Human recombinant FAP (setting [2])) was 10 to 79.4 nM in each case.

As for `CCCCCC(=O)N[C@H]1CSCc2cc(CSCCNC(=O)CCC(=O)NCCCOCCOCCOCCCNC(=O)CCCCC3(N(C)CC(=O)O)CN(CC(=O)O)CCN(CC(=O)O)C3)cc(c2)CSC[C@@H](C(=O)O)NC(=O)[C@H](Cc2ccccc2)NC(=O)[C@H](CCC(N)=O)NC(=O)[C@H]([C@@H](C)O)NC(=O)[C@@H]2CCCN2C(=O)[C@@H]2CCCN2C1=O` [3BP-4384, Hex-[Cys(tMeBn(DATA-Ttds-AET))-Pro-Pro-Thr-Gln-Phe-Cys]-OH], the half-maximal inhibitory concentration (IC50) in assay [1] lay in the range of 10 to 79.4 nM; at Human recombinant FAP (setting [2]), 10 to 79.4 nM; at Human recombinant FAP (pIC50 Category (activity), Recombinant human FAP), 10 to 79.4 nM. Besides, in assay [1] (FAP-expressing human WI-38 fibroblasts), the “pIC50 Category (FACS)” value is “B (category B for pIC50 values between 7.1 and 8.0)”.

Consider `CCCC[C@H](NC(=O)CCC(=O)NCCCOCCOCCOCCCNC(=O)CN1CCN(CC(=O)O)CCN(CC(=O)O)CCN(CC(=O)O)CC1)C(=O)N[C@H]1CSCc2cc(CSCCNC(=O)CN3CCN(CC(=O)O)CCN(CC(=O)O)CCN(CC(=O)O)CC3)cc(c2)CSC[C@@H](C(=O)O)NC(=O)[C@H](Cc2ccccc2)NC(=O)[C@H](CCC(N)=O)NC(=O)[C@H]([C@@H](C)O)NC(=O)[C@@H]2CCCN2C(=O)[C@@H]2CCCN2C1=O` [3BP-4386, DOTA-Ttds-Nle-[Cys(tMeBn(DOTA-AET))-Pro-Pro-Thr-Gln-Phe-Cys]-OH], for which the concentration for half-maximal inhibition (IC50) (in assay [1]; on Human recombinant FAP (setting [2])) was 10 to 79.4 nM in each case.
